According to patent EP4624470A1, “YOHIMBINE DERIVATIVE, AND PREPARATION METHOD THEREFOR AND PHARMACEUTICAL COMPOSITION AND USE THEREOF” (Shanghai Institute of Materia Medica, Chinese Academy of …, priority 2022, dated 2024):

Target: T1, α2A-AR (Homo sapiens, UniProt P08913)
T1 construct: expressed in transfected cells; stably expressing α2A-AR/Gα16
T1 sequence (P08913 1-465): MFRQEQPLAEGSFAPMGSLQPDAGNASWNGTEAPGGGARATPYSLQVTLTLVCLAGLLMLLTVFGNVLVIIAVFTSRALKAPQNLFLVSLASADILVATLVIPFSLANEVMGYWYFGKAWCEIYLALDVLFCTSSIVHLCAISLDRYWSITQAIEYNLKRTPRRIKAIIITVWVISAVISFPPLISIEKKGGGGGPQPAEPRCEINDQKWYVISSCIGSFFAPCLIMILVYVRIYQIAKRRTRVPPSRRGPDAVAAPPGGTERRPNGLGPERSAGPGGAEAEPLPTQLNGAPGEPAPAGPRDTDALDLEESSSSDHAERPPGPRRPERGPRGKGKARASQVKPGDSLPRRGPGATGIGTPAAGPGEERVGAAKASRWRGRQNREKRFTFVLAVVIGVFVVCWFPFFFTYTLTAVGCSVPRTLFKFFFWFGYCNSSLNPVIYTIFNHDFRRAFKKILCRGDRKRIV
Experiment: α2A-AR antagonist assay (calcium flux, Fluo-4, FlexStation II)
Type: cell-based
Settings: antagonistic activity against agonist UK14304 in cells stably expressing α2A-AR/Ga16
Excerpt: By establishing a cell line co-transfected with the target receptor and Ga16, the receptor can be activated to cause the activation of Gα16 protein, which in turn activates phospholipase C (PLC) to produce IP3 and DAG. IP3 can bind to the IP3 receptors on the endoplasmic reticulum and mitochondria in the cell, thereby causing the release of intracellular calcium. Therefore, measuring the changes in intracellular calcium can be used as a method to detect the activation state of the target receptor. Fluo-4/AM is a calcium fluorescent probe indicator used to measure calcium ions. As a non-polar lipid-soluble compound, after entering the cell, the AM group dissociates under the action of cell lipases and releases Fluo-4; since Fluo-4 is a polar molecule that is not easy to pass through the lipid bilayer membrane, it can keep in the cell for a long time. Finally, the level of Ga protein activation can be reflected by measuring the excited fluorescence intensity.
Before the test, the test compound was dissolved in DMSO to prepare a stock solution, which was diluted with culture medium to the required concentration when used.

Row | SMILES | IC50 [µM]
1 | O[C@H]1CC[C@H]2CN3CCc4c([nH]c5ccccc45)[C@@H]3C[C@@H]2[C@H]1c1nc(Cc2ccccc2)no1 [Compound C1] | < 0.1
2 | CC(c1ccccc1)c1noc([C@@H]2[C@H]3C[C@H]4c5[nH]c6ccccc6c5CCN4C[C@@H]3CC[C@@H]2O)n1 (some centres unmarked) [Compound C2] | 0.3 to 0.5
3 | O[C@H]1CC[C@H]2CN3CCc4c([nH]c5ccccc45)[C@@H]3C[C@@H]2[C@H]1c1nc(CCc2ccccc2)no1 [Compound C3] | 0.1 to 0.3
4 | COc1ccccc1Cc1noc([C@@H]2[C@H]3C[C@H]4c5[nH]c6ccccc6c5CCN4C[C@@H]3CC[C@@H]2O)n1 [Compound C4] | 0.5 to 2
5 | COc1cccc(Cc2noc([C@@H]3[C@H]4C[C@H]5c6[nH]c7ccccc7c6CCN5C[C@@H]4CC[C@@H]3O)n2)c1 [Compound C5] | 0.1 to 0.3
6 | COc1ccc(Cc2noc([C@@H]3[C@H]4C[C@H]5c6[nH]c7ccccc7c6CCN5C[C@@H]4CC[C@@H]3O)n2)cc1 [Compound C6] | < 0.1
7 | O[C@H]1CC[C@H]2CN3CCc4c([nH]c5ccccc45)[C@@H]3C[C@@H]2[C@H]1c1nc(Cc2ccccc2F)no1 [Compound C7] | 0.5 to 2
8 | O[C@H]1CC[C@H]2CN3CCc4c([nH]c5ccccc45)[C@@H]3C[C@@H]2[C@H]1c1nc(Cc2cccc(F)c2)no1 [Compound C8] | 0.3 to 0.5
9 | O[C@H]1CC[C@H]2CN3CCc4c([nH]c5ccccc45)[C@@H]3C[C@@H]2[C@H]1c1nc(Cc2ccc(F)cc2)no1 [Compound C9] | 0.5 to 2
10 | O[C@H]1CC[C@H]2CN3CCc4c([nH]c5ccccc45)[C@@H]3C[C@@H]2[C@H]1c1nc(Cc2ccccc2Cl)no1 [Compound C10] | 0.5 to 2
11 | O[C@H]1CC[C@H]2CN3CCc4c([nH]c5ccccc45)[C@@H]3C[C@@H]2[C@H]1c1nc(Cc2cccc(Cl)c2)no1 [Compound C11] | 0.5 to 2
12 | O[C@H]1CC[C@H]2CN3CCc4c([nH]c5ccccc45)[C@@H]3C[C@@H]2[C@H]1c1nc(Cc2c(Cl)cccc2Cl)no1 [Compound C12] | 0.1 to 0.3
13 | O[C@H]1CC[C@H]2CN3CCc4c([nH]c5ccccc45)[C@@H]3C[C@@H]2[C@H]1c1nc(Cc2ccc(Cl)c(Cl)c2)no1 [Compound C13] | 0.5 to 2
14 | O[C@H]1CC[C@H]2CN3CCc4c([nH]c5ccccc45)[C@@H]3C[C@@H]2[C@H]1c1nc(Cc2ccccc2Br)no1 [Compound C14] | < 0.1
15 | O[C@H]1CC[C@H]2CN3CCc4c([nH]c5ccccc45)[C@@H]3C[C@@H]2[C@H]1c1nc(Cc2cccc(Br)c2)no1 [Compound C15] | < 0.1
16 | O[C@H]1CC[C@H]2CN3CCc4c([nH]c5ccccc45)[C@@H]3C[C@@H]2[C@H]1c1nc(Cc2ccc(Br)cc2)no1 [Compound C16] | 0.5 to 2
17 | N#Cc1ccccc1Cc1noc([C@@H]2[C@H]3C[C@H]4c5[nH]c6ccccc6c5CCN4C[C@@H]3CC[C@@H]2O)n1 [Compound C17] | 0.1 to 0.3
18 | N#Cc1cccc(Cc2noc([C@@H]3[C@H]4C[C@H]5c6[nH]c7ccccc7c6CCN5C[C@@H]4CC[C@@H]3O)n2)c1 [Compound C18] | < 0.1
19 | NC(=O)c1ccc(Cc2noc([C@@H]3[C@H]4C[C@H]5c6[nH]c7ccccc7c6CCN5C[C@@H]4CC[C@@H]3O)n2)cc1 [Compound C27] | < 0.1

The next lines start with the values.

Row | IC50 [µM] | SMILES
20 | 0.1 to 0.3 | O[C@H]1CC[C@H]2CN3CCc4c([nH]c5ccccc45)[C@@H]3C[C@@H]2[C@H]1c1nc(CN2CCOCC2)no1 [Compound C20]
21 | 0.5 to 2 | O[C@H]1CC[C@H]2CN3CCc4c([nH]c5ccccc45)[C@@H]3C[C@@H]2[C@H]1c1nc(CC2CC2)no1 [Compound C21]
22 | 0.1 to 0.3 | COCc1noc([C@@H]2[C@H]3C[C@H]4c5[nH]c6ccccc6c5CCN4C[C@@H]3CC[C@@H]2O)n1 [Compound C22]
23 | 0.3 to 0.5 | O[C@H]1CC[C@H]2CN3CCc4c([nH]c5ccccc45)[C@@H]3C[C@@H]2[C@H]1c1nc(-c2ccccc2)no1 [Compound C23]
24 | 0.5 to 2 | O[C@H]1CC[C@H]2CN3CCc4c([nH]c5ccccc45)[C@@H]3C[C@@H]2[C@H]1c1nc(-c2ccncc2)no1 [Compound C24]
25 | 0.3 to 0.5 | O[C@H]1CC[C@H]2CN3CCc4c([nH]c5ccccc45)[C@@H]3C[C@@H]2[C@H]1c1nc(C2CCCCC2)no1 [Compound C25]
26 | 0.1 to 0.3 | Cc1noc([C@@H]2[C@H]3C[C@H]4c5[nH]c6ccccc6c5CCN4C[C@@H]3CC[C@@H]2O)n1 [Compound C26]
27 | < 0.1 | CN(C)S(=O)(=O)c1ccc(Cc2noc([C@@H]3[C@H]4C[C@H]5c6[nH]c7ccccc7c6CCN5C[C@@H]4CC[C@@H]3O)n2)cc1 [Compound C28]
28 | 0.1 to 0.3 | COC(=O)c1ccc(Cc2noc([C@@H]3[C@H]4C[C@H]5c6[nH]c7ccccc7c6CCN5C[C@@H]4CC[C@@H]3O)n2)cc1 [Compound C29]
29 | 0.3 to 0.5 | O=C(O)c1ccc(Cc2noc([C@@H]3[C@H]4C[C@H]5c6[nH]c7ccccc7c6CCN5C[C@@H]4CC[C@@H]3O)n2)cc1 [Compound C30]
30 | 0.3 to 0.5 | O[C@H]1CC[C@H]2CN3CCc4c([nH]c5ccccc45)[C@@H]3C[C@@H]2[C@H]1c1nc(Cc2nc3ccccc3o2)no1 [Compound C31]
31 | < 0.1 | O[C@H]1CC[C@H]2CN3CCc4c([nH]c5ccccc45)[C@@H]3C[C@@H]2[C@H]1c1nc(Cc2cccc(OC(F)(F)F)c2)no1 [Compound C32]
32 | 0.1 to 0.3 | O[C@H]1CC[C@H]2CN3CCc4c([nH]c5ccccc45)[C@@H]3C[C@@H]2[C@H]1c1nc(Cc2cccc(C(F)(F)F)c2)no1 [Compound C33]
33 | 0.1 to 0.3 | CN(C)c1cccc(Cc2noc([C@@H]3[C@H]4C[C@H]5c6[nH]c7ccccc7c6CCN5C[C@@H]4CC[C@@H]3O)n2)c1 [Compound C34]
34 | 0.1 to 0.3 | CN(C)C(=O)c1ccc(Cc2noc([C@@H]3[C@H]4C[C@H]5c6[nH]c7ccccc7c6CCN5C[C@@H]4CC[C@@H]3O)n2)cc1 [Compound C35]

Test system: not listed separately
Experiment: Tissue distribution test in mice
Type: in vivo
Settings: gavage 10 mg/kg
Description: Mice were fasted for more than 12 h and had free access to water. Table 3 Experimental Scheme for tissue distribution of Compound C27 in mice
Mice were fasted for more than 12 h and had free access to water.
• (1) Tissue distribution test in mice: The animals in each group were anesthetized and killed 2 h after administration. The brain, pancreas, heart, liver, and kidney tissues were collected by dissection, washed with physiological saline, and stored in a -20 °C refrigerator for testing. At the same time, 0.3 mL of whole blood was collected and placed in an EDTA-K2 anticoagulant tube. The blood was separated by centrifugation at 11,000 rpm for 5 min and stored in a -20 °C refrigerator for testing.
The concentration of unchanged drug in plasma and tissues was determined.
(2) Tissue distribution test of compound C27 in mice: At corresponding time points (0.25, 2 and 8 h) after gavage administration, mice were bled to death through the abdominal aorta. Brain, heart, liver, lung, pancreas and kidney tissues were immediately collected by dissection, and part of the plasma was collected. The operation was carried out in an ice water bath.
Centrifugation conditions: 11000 rpm for 5 min to separate plasma (about 200 µL).

Row | SMILES | pancreatic distribution
35 | NC(=O)c1ccc(Cc2noc([C@@H]3[C@H]4C[C@H]5c6[nH]c7ccccc7c6CCN5C[C@@H]4CC[C@@H]3O)n2)cc1 [Compound C27] | pancreatic distribution characteristics comparable to those of compound C19

Same assay, conditions: gavage 10 mg/kg, compared with yohimbine

Row | SMILES | plasma exposure
36 | NC(=O)c1ccc(Cc2noc([C@@H]3[C@H]4C[C@H]5c6[nH]c7ccccc7c6CCN5C[C@@H]4CC[C@@H]3O)n2)cc1 [Compound C27] | equivalent to that of yohimbine

Same assay, conditions: gavage 10 mg/kg, relative ratio of tissue distribution concentration to blood concentration

Row | SMILES | brain tissue distribution compared with yohimbine | brain tissue distribution, times lower than that of yohimbine
37 | O[C@H]1CC[C@H]2CN3CCc4c([nH]c5ccccc45)[C@@H]3C[C@@H]2[C@H]1c1nc(Cc2ccccc2)no1 [Compound C1] | lower brain tissue distribution than yohimbine | –
38 | COc1ccc(Cc2noc([C@@H]3[C@H]4C[C@H]5c6[nH]c7ccccc7c6CCN5C[C@@H]4CC[C@@H]3O)n2)cc1 [Compound C6] | lower brain tissue distribution than yohimbine | –
39 | O[C@H]1CC[C@H]2CN3CCc4c([nH]c5ccccc45)[C@@H]3C[C@@H]2[C@H]1c1nc(Cc2ccc(Cl)c(Cl)c2)no1 [Compound C13] | lower brain tissue distribution than yohimbine | –
40 | NC(=O)c1ccc(Cc2noc([C@@H]3[C@H]4C[C@H]5c6[nH]c7ccccc7c6CCN5C[C@@H]4CC[C@@H]3O)n2)cc1 [Compound C27] | lower brain tissue distribution than yohimbine | about two hundred and seventy times lower
